These results are taken from PubChem BioAssay (NCI).

Several values for one entry are separate records, joined by “and”; a condition that tells them apart may be missing. Equal values may be shown once.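 In this assay, cells in 96-well plates receive the compound at five concentrations for 48 hours. Endpoints are linearly interpolated between the surrounding concentrations. GI50 marks 50% less growth. The concentration for full growth arrest is given as TGI.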

Some test systems named below: EKVX NSCLC; MALME-3M melanoma; NCI-H460 lung; RPMI-8226 leukemia; SF-295 CNS; SK-MEL-5 melanoma; SN12C renal; SNB-19 CNS; SR leukemia; UO-31 renal.
Holding throughout (test): NCI tumour cell line growth inhibition, 48 h

With `CCCCCCCCCCCCCCCCCC(=O)OCC(CN(C)CCN(C)C)OC(=O)CCCCCCCCCCCCCCCCC` (stereo not drawn), the TGI with EKVX NSCLC, in the assay on MALME-3M melanoma, with NCI-H460 lung, in the assay on RPMI-8226 leukemia, with SF-295 CNS and with SK-MEL-5 melanoma was > 100 µM each time. Further, the TGI in the assay on SN12C renal is > 100 µM; in the assay on SNB-19 CNS, > 100 µM; in the assay with SR leukemia, 64.2 µM; with UO-31 renal it was > 100 µM.

`Cc1ccccc1-c1c(N)nc(NC#N)nc1C(=O)Nc1ccccc1`: the TGI in the assay on EKVX NSCLC, in the assay on MALME-3M melanoma, in the assay with NCI-H460 lung, in the assay on RPMI-8226 leukemia, in the assay on SF-295 CNS and in the assay on SK-MEL-5 melanoma was > 100 µM each time. For the same compound, the TGI with SN12C renal, in the assay with SNB-19 CNS, with SR leukemia and in the assay with UO-31 renal was > 100 µM each time.

For the compound `C=C1C(=O)O[C@H]2[C@H]1CC/C(COC(=O)NCc1cc3ccccc3[nH]1)=C\CC[C@@]1(C)O[C@@H]21`, the GI50 in the assay on EKVX NSCLC was 1.64 µM; in the assay with MALME-3M melanoma, 1.81 µM; with NCI-H460 lung, 3.78 µM; in the assay on RPMI-8226 leukemia it was 0.604 µM; with SF-295 CNS, 8.23 µM; with SK-MEL-5 melanoma, 2.98 µM. In addition, the GI50 is 1.45 µM in the assay with SN12C renal, 5.62 µM in the assay with SNB-19 CNS, 2.32 µM with SR leukemia and 1.2 µM in the assay on UO-31 renal. Further, the TGI in the assay with EKVX NSCLC amounted to 3.53 µM; with MALME-3M melanoma, 3.58 µM; in the assay on NCI-H460 lung, 14.6 µM; with RPMI-8226 leukemia, 3.27 µM; in the assay on SF-295 CNS, 20.9 µM; with SK-MEL-5 melanoma, 9.71 µM. The TGI with SN12C renal was 3.17 µM; in the assay with SNB-19 CNS it was 20.4 µM; in the assay with SR leukemia, 8.75 µM; in the assay on UO-31 renal, 2.43 µM.

Regarding `Clc1ccc(Cl)c2[s+]snc12`, the TGI in the assay on EKVX NSCLC was > 100 µM; in the assay on MALME-3M melanoma it was 99.5 µM; in the assay with NCI-H460 lung, > 88.3 µM; in the assay with RPMI-8226 leukemia, > 77.6 µM; with SF-295 CNS, > 100 µM; with SK-MEL-5 melanoma, > 100 µM. Moreover, the TGI with SN12C renal, in the assay with SNB-19 CNS, with SR leukemia and in the assay on UO-31 renal was > 100 µM throughout.

`O=C(O)c1cc2ccccc2c(O)c1O`: the TGI in the assay on EKVX NSCLC is 51.1 µM; with MALME-3M melanoma, 3.78 µM; with NCI-H460 lung, 41.8 µM; with RPMI-8226 leukemia, > 76.1 µM; in the assay with SF-295 CNS it was 29.4 µM; with SK-MEL-5 melanoma, 8.18 µM. Moreover, the TGI in the assay on SN12C renal was 31.5 µM; in the assay with SNB-19 CNS, 35.8 µM; in the assay on SR leukemia, > 79 µM; in the assay on UO-31 renal it was 35.4 µM.

Regarding `O=c1cc(C(F)(F)F)c2cc3c(cc2o1)NCCC3`, the TGI in the assay with EKVX NSCLC, in the assay on MALME-3M melanoma, in the assay on NCI-H460 lung, in the assay with RPMI-8226 leukemia, in the assay on SF-295 CNS and in the assay on SK-MEL-5 melanoma was > 100 µM in each case. Further, the TGI with SN12C renal is > 100 µM; in the assay on SNB-19 CNS, 91.7 µM; with SR leukemia, > 100 µM; in the assay on UO-31 renal it was > 100 µM.

As to `CC(=O)Nc1ccc(C(=O)N2N=C(C)/C(=C/c3ccccc3O)C2=O)cc1`, the TGI with EKVX NSCLC, in the assay on MALME-3M melanoma, in the assay on NCI-H460 lung, in the assay on RPMI-8226 leukemia, in the assay with SF-295 CNS and with SK-MEL-5 melanoma was > 100 µM throughout. The TGI in the assay on SN12C renal, in the assay with SNB-19 CNS, in the assay with SR leukemia and with UO-31 renal was > 100 µM each time.

As to `O=Cc1c(-c2cc(O)ccc2O)nc2sccn12`, the GI50 in the assay with EKVX NSCLC is 28.4 µM; in the assay with MALME-3M melanoma, 10.9 µM; with NCI-H460 lung it was 18 µM; with RPMI-8226 leukemia, 1.76 µM; with SF-295 CNS, 25 µM; with SK-MEL-5 melanoma, 15.8 µM. The GI50 in the assay on SN12C renal was 12.8 µM; with SNB-19 CNS it was 42.6 µM; in the assay with SR leukemia it was 0.64 µM; in the assay on UO-31 renal, 1.05 µM. Besides, the TGI in the assay on EKVX NSCLC was 93.1 µM; with MALME-3M melanoma, 25 µM; with NCI-H460 lung, 40.8 µM; in the assay with RPMI-8226 leukemia, 8.09 µM; in the assay on SF-295 CNS, 74.6 µM; in the assay with SK-MEL-5 melanoma, 35.6 µM. Besides, the TGI with SN12C renal is 34.5 µM; in the assay on SNB-19 CNS, > 100 µM; in the assay with SR leukemia, 3.42 µM; in the assay with UO-31 renal, 2.38 µM.

On to `O=C(/C=C/c1cccnc1)NCCCCC1CCN(C(=O)c2ccccc2)CC1`, for which the GI50 is > 66.9 µM in the assay with EKVX NSCLC; > 86.5 µM in the assay with MALME-3M melanoma; 0.274 µM and 0.0767 µM with NCI-H460 lung; < 0.0256 µM with SF-295 CNS; 35.3 µM and 21.8 µM with SK-MEL-5 melanoma; < 0.01 µM with SN12C renal. The GI50 was 0.615 µM and 4.43 µM in the assay with SNB-19 CNS; > 100 µM with UO-31 renal. Further, the TGI in the assay on EKVX NSCLC, with MALME-3M melanoma, with NCI-H460 lung, in the assay with RPMI-8226 leukemia, in the assay with SF-295 CNS and with SK-MEL-5 melanoma was > 100 µM in each case. Also, the TGI with SN12C renal, in the assay on SNB-19 CNS, in the assay on SR leukemia and in the assay with UO-31 renal was > 100 µM each time.

For the compound `Cc1ccc(NC(=O)CC2C(=O)Nc3ccccc3S2=O)cc1C` (stereo not drawn), the TGI in the assay on EKVX NSCLC, in the assay on MALME-3M melanoma, in the assay on NCI-H460 lung, in the assay on RPMI-8226 leukemia, in the assay on SF-295 CNS and in the assay with SK-MEL-5 melanoma was > 100 µM throughout. Moreover, the TGI in the assay with SN12C renal, in the assay on SNB-19 CNS, in the assay on SR leukemia and with UO-31 renal was > 100 µM each time.
